# What was measured:
# acute hippocampal slices = assay: Low Mg2+-induced injury of acute hippocampal slices, LDH release; type: cell-based; conditions: aCSF without Mg2+ plus 100 μM amiloride for 2 hr, medium collected 6 hr after incubation
# Protocol: To determine whether ASIC blockade affects seizure-induced neuronal injury, we tested the effect of ASIC blockade on low Mg^2+-induced injury of acute hippocampal slices. 400 μm-thick coronal slices were cut and placed on a Millipore membrane in 6-well plates (2 slices in each well). Slices were randomly divided into three groups treated with the following different solutions (for 2 hr): oxygenated aCSF with normal Mg^2+; oxygenated aCSF without Mg^2+; oxygenated aCSF without Mg^2+ plus 100 μM amiloride. 100 μL medium was collected from each slice 6 hr following the incubation for the measurement of lactate dehydrogenase (LDH). The LDH value was then normalized to the maximal releasable LDH to give % of cell death. With aCSF containing normal Mg^2+, 6.2±0.9% of maximal LDH release was recorded. In the absence of Mg^2+, this value was increased to 13.0±2.2%. Addition of aniloride decreased relative LDH release to 6.0±0.4% (n=3).
# LDH Assay. Lactate dehydrogenase (LDH) is a stable cytoplasmic enzyme present in all cells. […] LDH assays were performed using the Cytotoxicity Detection Kit (Cat#1644793, Roche Molecular Biochemicals) and a spectrophotometric mutiwell plate reader (SPECTRAmax, Molecular Devices). […] Absorbance at OD490 nm was measured 30 min after the reaction. Absorbance at a reference wavelength (OD620 nm) was subtracted from the measurement.
# C57BL/6 mice = assay: In vivo kainic acid (KA)-induced seizure model, EEG and TUNEL staining; parameters: species or system mouse
# Protocol: In an in vivo model of epilepsy (Araki et al., 2002), WT and ASIC1^−/− C57BL/6 mice. 20-25 g, had unilateral microinjection of kainic acid (KA) into the basolateral amygdala nucleus. […] Identical KA injection in ASIC1^−/− mice produced attenuated polyspike EEG activity (total duration: 109.8±30.8 sec, n=6, p<0.01 versus WT control, FIG. 8D).
# TUNEL staining. Following cryostat sectioning, slices were air-dried, fixed in 10% formalin for 15 min, washed three times in PBS, permeabilized in 3% Triton X-100 for 20 min, and washed three times in PBS. Slices were subsequently incubated with a reaction mixture that contained FITC-dUTP and 300 U/mL terminal deoxy-transferase (TdT) for 90 min at 37° C. Cultures were then viewed with a fluorescent microscope at an excitation/emission wavelength of 500/550 nm (green) for FITC-TUNEL labeled cells.
# Intracerebroventricular injection in mice. The procedure was performed as described in our previous studies (Pignataro et al., 2007; Xiong et al., 2004). A burr hole was drilled through the skull and a cannula inserted in the right lateral ventricle. The cannula was inserted stereotactically at 0.5 mm posterior, 1.0 mm lateral, and 3.0 mm ventral to the bregma, 0.5 μL of aCSF, amiloride, or PcTX1 was infused 60 min before KA injection.
# In vivo KA-induced seizure model. A KA-induced in vivo seizure model was implemented as described in our previous studies (Araki et al., 2002). The protocol for seizure-induction in vivo in mice was approved by the Institutional Animal Care and Use Committee of Legacy Research. Adult male wild-type and ASIC1^−/− mice with genomic background of C57BL/6, 20-25 g in weight, were used for seizure induction by unilateral microinjection of KA into the basolateral amygdala nucleus based on stereotactic coordinates (AP −0.94 mm, L −2.85 mm, and V −3.75 mm relative to the Bregma). After anesthesia and catheterization of the femoral vein, animals were placed in a stereotactic frame modified with a headpiece compatible for the mouse (Kopf Instruments) and kept under anesthesia using a mixture of 68.5% N2O, 30% O2, and 1.5% isoflurane. Rectal body temperature was kept at 37±1° C. during and after the operation using either a heating pad or heating lamp (Harvard Instruments, Holiiston, Mass.). Using dental cement (Plastics One, Inc.), three skull-mounted recording electrodes were affixed to mice (Plastics One, Inc., Roanoke, Va.) and a 26-gauge steel guide cannula over the intact dura. […] The EEG was monitored for 30 min using a Grass Electroencephalogram (Model 8-16), and lorazepam (6 mg/kg, i.p.) Was then administered to terminate seizures. The EEG was further monitored for up to 30 min to ensure seizure cessation. The duration of polyspike (type 4) EEG activity for each mouse was calculated blind offline. […]
# [1] = icv 0.5 μL aCSF containing PcTX1 500 ng/mL, 60 min before KA
# [2] = icv PcTX1 500 ng/mL, 24 hr after KA injection
Compound,"relative LDH release (% of maximal releasable LDH, cell death) (acute hippocampal slices) [%]",duration of polyspike (type-4) EEG activity in 30 min (C57BL/6 mice; [1]) [s],mice showing polyspike EEG activity (C57BL/6 mice; [1]),average TUNEL positive cells in CA3 (C57BL/6 mice; [2]),mice showing any CA3 injury (C57BL/6 mice; [2])
"NC(N)=NC(=O)c1nc(Cl)c(N)nc1N [amiloride, 3,5-diamino-6-chloro-N(diaminomethylidene)pyrazine-2-carboxamide]",6.0±0.4,,,,
Psalmotoxin 1 [PcTX1],,128.3 ± 60.3,two out of six,21.8±14.1,two out of six

# Reference: patent US7892764B2, “System for seizure suppression” (priority 2006, dated 2011)
